# Like-named read-outs stand apart in the source and are kept apart here.
# Columns and labels:
# [1] = Hygroscopicity: sorption/desorption isotherms, VTI 100 humidity microbalance; format: physicochemical; details: for Moisture gain (water uptake): 25° C.
# Method: Sorption/desorption isotherms were measured using the VTI 100 humidity microbalance (VTI Corporation, Hialeah, Fla., USA). Measurements were carried out at 25° C. Samples were dried under N2 flow at 25° C.
# [2] = Determination of solubility (excess solids equilibrated over 24 hours at 25° C.); format: physicochemical; details: thermodynamic from solid
# Method: Excess solids were equilibrated in each solvent for over 24 hours at 25° C.±0.1. Concentration in supernatant was measured by gravimetry for organic solvents and by HPLC from aqueous solvents and propylene glycol.
compound,measurement,setting,value
"Cl.N#Cc1ccc([C@H]2CCc3cncn32)c(F)c1 [HCl salt, HCl salt of 4-(R)-(6,7-dihydro-5H-pyrrolo[1,2-c]imidazol-5-yl)-3-fluoro-benzonitrile, reference compound]",Moisture gain (water uptake),[1]; 0% r.h.,0.0%
same,Moisture gain (water uptake),[1]; 5% r.h.,0.0%
same,Moisture gain (water uptake),[1]; 25% r.h.,0.5%
same,Moisture gain (water uptake),[1]; 50% r.h.,0.2%
same,Moisture gain (water uptake),[1]; 75% r.h.,0.2%
same,Moisture gain (water uptake),[1]; 85% r.h.,3.3%
same,Moisture gain (water uptake),[1]; 95% r.h.,23.6%
same,Hygroscopicity (in words),[1]; in contrast to the phosphate and nitrate salts,excessive hygroscopicity
"N#Cc1ccc([C@H]2CCc3cncn32)c(F)c1 [Free base, 4-(R)-(6,7-Dihydro-5H-pyrrolo[1,2-c]imidazol-5-yl)-3-fluoro-benzonitrile]",solubility,"[2]; organic solvent or mixture, Ethyl Acetate, read-out: Solubility profile",> 50 mg/mL
same,solubility,"[2]; simulated gastric fluid, pH 1, read-out: Solubility profile",> 50 mg/mL
same,Moisture gain (water uptake),[1]; 0% r.h.,0.0%
same,Moisture gain (water uptake),[1]; 5% r.h.,0.0%
same,Moisture gain (water uptake),[1]; 25% r.h.,0.1%
same,Moisture gain (water uptake),[1]; 50% r.h.,0.2%
same,Moisture gain (water uptake),[1]; 75% r.h.,0.3%
same,Moisture gain (water uptake),[1]; 85% r.h.,0.5%
same,Moisture gain (water uptake),[1]; 95% r.h.,1.0%
"N#Cc1ccc([C@H]2CCc3cncn32)c(F)c1.O=P(O)(O)O [Phosphate salt, Phosphate salt of 4-(R)-(6,7-dihydro-5H-pyrrolo[1,2-c]imidazol-5-yl)-3-fluoro-benzonitrile (Form A)]",Moisture gain (water uptake),[1]; 0% r.h.,0.0%
same,Moisture gain (water uptake),"[1]; 5% r.h., listed as Phosphate",0.0%
same,Moisture gain (water uptake),"[1]; 5% r.h., listed as phosphate salt",0%
same,Moisture gain (water uptake),[1]; 25% r.h.,0.1%
same,Moisture gain (water uptake),[1]; 50% r.h.,0.1%
same,Moisture gain (water uptake),"[1]; 75% r.h., listed as Phosphate",0.2%
same,Moisture gain (water uptake),"[1]; 75% r.h., listed as phosphate salt",0.9%
same,Moisture gain (water uptake),[1]; 85% r.h.,0.3%
same,Moisture gain (water uptake),[1]; 95% r.h.,0.8%
"N#Cc1ccc([C@H]2CCc3cncn32)c(F)c1.O=[N+]([O-])O [nitrate salt, Nitrate salt of 4-(R)-(6,7-dihydro-5H-pyrrolo[1,2-c]imidazol-5-yl)-3-fluoro-benzonitrile]",Moisture gain (water uptake),[1]; 0% r.h.,0.0%
same,Moisture gain (water uptake),[1]; 5% r.h.,0%
same,Moisture gain (water uptake),"[1]; 5% r.h., listed as Nitrate",0.0%
same,Moisture gain (water uptake),[1]; 25% r.h.,0.1%
same,Moisture gain (water uptake),[1]; 50% r.h.,0.2%
same,Moisture gain (water uptake),[1]; 75% r.h.,0.2%
same,Moisture gain (water uptake),[1]; 85% r.h.,0.2%
same,Moisture gain (water uptake),[1]; 95% r.h.,0.2%
